Data on two compounds can be found in US9695155B2, “Herbicidal substituted pyrimidinyloxy benzene compounds” (E. I. DU PONT DE NEMOURS AND COMPANY, priority 2013, dated 2017).

One test deals with kochia. Kind of test: Test E postemergence. Type of test: in vivo, Kochia scoparia. An excerpt: Seeds of plant species selected from corn (Zea mays), soybean (Glycine max), velvetleaf (Abutilon theophrasti), lambsquarters (Chenopodium album), wild poinsettia (Euphorbia heterophylla), palmer pigweed (Amaranthus palmeri), waterhemp (common waterhemp, Amaranthus rudis), surinam grass (Brachiaria decumbens), large (Lg) crabgrass (Digitaria sanguinalis), Brazilian crabgrass (Digitaria horizontalis), fall panicum (Panicum dichotomiflorum), giant foxtail (Setaria faberii), green foxtail (Setaria viridis), goosegrass (Eleusine indica), johnsongrass (Sorghum halepense), ragweed (common ragweed, Ambrosia elatior), barnyardgrass (Echinochloa crus-galli), sandbur (southern sandbur, Cenchrus echinatus), arrowleaf sida (Sida rhombifolia), Italian ryegrass (Lolium multiflorum), dayflower (Virginia (VA) dayflower, Commelina virginica), field bindweed (Convolvulus arvensis), morningglory (Ipomoea coccinea), nightshade (eastern black nightshade, Solanum ptycanthum), kochia (Kochia scoparia), yellow nutsedge (Cyperus esculentus), cocklebur (common cocklebur, Xanthium strumarium), smartweed (ladysthumb smartweed, and hairy beggarticks (Bidens pilosa), were planted into a silt loam soil and treated preemergence with test chemicals formulated in a non-phytotoxic solvent mixture which included a surfactant.
At the same time, plants from these crop and weed species and also horseweed (Canada horseweed, Conyza canadensis), waterhemp_RES1, (ALS & Triazine resistant common waterhemp, Amaranthus rudis), and waterhemp_RES2, (ALS & HPPD resistant common waterhemp, Amaranthus rudis) were planted in pots containing Redi-Earth® planting medium (Scotts Company, 14111 Scottslawn Road, Marysville, Ohio 43041) comprising spaghnum peat moss, vermiculite, wetting agent and starter nutrients were treated with postemergence applications of test chemicals formulated in the same manner. Plants ranged in height from 2 to 18 cm for postemergence treatments (1- to 4-leaf stage). Treated plants and controls were maintained in a greenhouse for 14 to 21 days, after which time all species were compared to controls and visually evaluated. Plant response ratings, summarized in Table E, are based on a scale of 0 to 100 where 0 is no effect and 100 is complete control. A dash (-) response means no test result.

The subject of the next test is dallisgrass. The test can be described thus: Test F preemergence. It is filed as in vivo, Paspalum dilatatum. The following applies: 21 days, scale 0 to 100. From the text:
(§1) Seeds of plant species selected from bermudagrass (Cynodon dactylon), surinam grass (Brachiaria decumbens), large (Lg) crabgrass (Digitaria sanguinalis), crabgrass, naked (naked crabgrass, Digitaria nuda), foxtail, green (green foxtail, Setaria viridis), johnsongrass (Sorghum halepense), kochia (Kochia scoparia), morningglory (pitted morningglory, Ipomoea lacunosa), nutsedge, purple (purple nutsedge, Cyperus rotundus), ragweed (common ragweed, Ambrosia elatior), mustard, black (black mustard, Brassica nigra), guineagrass (Panicum maximum), dallisgrass (Paspalum dilatatum), barnyardgrass (Echinochloa crus-galli), sandbur (southern sandbur, Cenchrus echinatus), sowthistle (common sowthistle, Sonchus oleraceous), Italian ryegrass (Lolium multiflorum), signalgrass (broadleaf signalgrass, Brachiaria platyphylla), dayflower (Virginia (VA) dayflower, Commelina virginica), bluegrass (annual bluegrass, Poa annua), quackgrass (Elytrigia repens), mallow (common mallow, Malva sylvestris), buckwheat, wild (wild buckwheat, Polygonum convolvulus), leafy spurge (Euphorbia esula), chickweed (common chickweed, Stellaria media), wild poinsettia (Euphorbia heterophylla), and pigweed (Amaranthus retroflexus) were planted into a blend of loam soil and sand and treated preemergence with test chemicals formulated in a non-phytotoxic solvent mixture which included a surfactant.
(§2) Treated plants and controls were maintained in a greenhouse for 21 days, after which time all species were compared to controls and visually evaluated. Plant response ratings, summarized in Table F, are based on a scale of 0 to 100 where 0 is no effect and 100 is complete control. A dash (-) response means no test result.

For another test, the system named is leafy spurge. Kind of test: Test F preemergence. The conditions noted are these: 21 days, scale 0 to 100. It is filed as in vivo, Euphorbia esula.
Source text: as §1, §2

In a further test the test system is ragweed. Kind of test: Test F preemergence. Type of test: in vivo, Ambrosia elatior. The conditions noted are these: 21 days, scale 0 to 100. In outline:
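Seeds are planted in a blend of loam and sand. Chemicals in a surfactant-containing non-phytotoxic solvent are applied before emergence. After 21 days under greenhouse conditions, plants are compared with controls and scored visually, 0–100.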

Setting [1] is: Postemergence, 31 g ai/ha, scale 0 to 100.
Setting [2] is: Postemergence, 62 g ai/ha, scale 0 to 100.
Where [3] appears, read: Postemergence, 125 g ai/ha, scale 0 to 100.
The mark [4] stands for this setting: postemergence, 16 g ai/ha, scale 0 to 100, 0 no effect, 100 complete control.

For `Clc1cnc(Oc2cccc(Cl)c2-n2cc(I)cn2)nc1` [Compound 181], the “Plant response rating, Kochia” value in the test on kochia (setting [1]) worked out at 60; with kochia (setting [2]), 50; in the test on kochia (setting [3]), 90; in the test with kochia (setting [4]), 35.

Consider `N#Cc1cccc(Oc2ncc(F)cn2)c1-n1cc(C(F)(F)F)cn1` [Compound 79, 3-[(5-fluoro-2-pyrimidinyl)oxy]-2-[4-(trifluoromethyl)-1H-pyrazol-1-yl]benzonitrile], for which the “Plant response rating, Dallisgrass” value in the test on dallisgrass (16 g ai/ha) is recorded as 65; with dallisgrass (31 g ai/ha), 98; in the test on dallisgrass (62 g ai/ha), 100; in the test on dallisgrass (125 g ai/ha), 100; in the test with dallisgrass (250 g ai/ha), 100. The “Plant response rating, Kochia” value in the test on kochia (setting [1]) is 70; in the test on kochia (setting [2]) it was 80; in the test on kochia (setting [3]), 75; with kochia (setting [4]), 50. For the same compound, the “Plant response rating, Leafy Spurge” value was 95 in the test with leafy spurge (16 g ai/ha); 98 with leafy spurge (31 g ai/ha); 100 in the test on leafy spurge (62 g ai/ha); 100 with leafy spurge (125 g ai/ha); 100 in the test on leafy spurge (250 g ai/ha). Also, the “Plant response rating, Ragweed” value in the test with ragweed (16 g ai/ha) is reported as 25; in the test on ragweed (31 g ai/ha), 70; with ragweed (62 g ai/ha) it was 98; in the test with ragweed (125 g ai/ha), 100; with ragweed (250 g ai/ha), 100.
